Assay results as given in ChEMBL document CHEMBL1201862, “PubChem BioAssay data set” (2004).
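Cells were grown in 96-well plates and exposed to each compound for 48 hours at five concentrations; endpoints were interpolated linearly between bracketing concentrations, or set to the highest concentration if not reached. GI50 = concentration required for 50% inhibition of growth.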 Activity calls are given as the source filed them. No stated cut-off is given here; in the data, active = GI50 up to about 1.1 µM and inactive = higher.

Columns and labels:
Test in all cases: NCI-60 cell line screen, 48 h
[1] = tested on: OVCAR-3
[2] = tested on: DU-145
[3] = tested on: OVCAR-8
[4] = tested on: SK-MEL-28
[5] = tested on: TK-10
[6] = tested on: MCF7
[7] = tested on: A498
[8] = tested on: PC-3
[9] = tested on: HOP-62
[10] = tested on: NCI-H23
[11] = tested on: UO-31
[12] = tested on: HT-29
[13] = tested on: U-251
[14] = tested on: MDA-N
[15] = tested on: MDA-MB-435
[16] = tested on: SN12C
[17] = tested on: IGROV-1
[18] = tested on: 786-0
[19] = tested on: NCI-H226
[20] = tested on: ACHN
[21] = tested on: NCI/ADR-RES
[22] = tested on: SW-620
[23] = tested on: SR
[24] = tested on: HCC 2998
[25] = tested on: SK-MEL-2
[26] = tested on: KM12
[27] = tested on: SK-OV-3
[28] = tested on: M14
[29] = tested on: BT-549
[30] = tested on: SNB-19
[31] = tested on: SF-268
[32] = tested on: EKVX
[33] = tested on: NCI-H522
[34] = tested on: A549
[35] = tested on: COLO 205
[36] = tested on: LOX IMVI
[37] = tested on: K562
[38] = tested on: MOLT-4
[39] = tested on: Hs-578T
[40] = tested on: HCT-116
[41] = tested on: UACC-62
[42] = tested on: NCI-H460
[43] = tested on: CCRF-CEM
[44] = tested on: CAKI-1
[45] = tested on: T47D
[46] = tested on: HOP-92
[47] = tested on: HCT-15
[48] = tested on: UACC-257
[49] = tested on: SK-MEL-5
[50] = tested on: SF-295
[51] = tested on: OVCAR-5
[52] = tested on: RPMI-8226
[53] = tested on: OVCAR-4
[54] = tested on: MDA-MB-231
[55] = tested on: SNB-75

COC(=O)C(C)(C)NC(=O)C(Cc1ccccc1)Nc1ncnc2c1ncn2-c1ccc(OC)cc1 (stereo not given)
GI50 [1]: 38.8 µM (inactive)
GI50 [2]: 47.3 µM (inactive)
GI50 [3]: 48.2 µM (inactive)
GI50 [4]: 33.6 µM (inactive)
GI50 [5]: > 100 µM (inactive)
GI50 [6]: 23 µM (inactive)
GI50 [7]: 20.1 µM (inactive)
GI50 [8]: 29.5 µM (inactive)
GI50 [9]: 35.2 µM (inactive)
GI50 [10]: 56.8 µM (inactive)
GI50 [11]: 96.4 µM (inactive)
GI50 [12]: 19.9 µM (inactive)
GI50 [13]: 26.5 µM (inactive)
GI50 [14]: 20.3 µM (inactive)
GI50 [15]: 14.9 µM (inactive)
GI50 [16]: 85.1 µM (inactive)
GI50 [17]: 15 µM (inactive)
GI50 [18]: 28.8 µM (inactive)
GI50 [19]: 32.1 µM (inactive)
GI50 [20]: > 100 µM (inactive)
GI50 [21]: 31.3 µM (inactive)
GI50 [22]: 19.9 µM (inactive)
GI50 [23]: > 10 µM (inactive)
GI50 [24]: 50.7 µM (inactive)
GI50 [25]: 37.5 µM (inactive)
GI50 [26]: 25.6 µM (inactive)
GI50 [27]: 46.8 µM (inactive)
GI50 [28]: 42.7 µM (inactive)
GI50 [29]: 40.9 µM (inactive)
GI50 [30]: > 100 µM (inactive)
GI50 [31]: 31 µM (inactive)
GI50 [32]: 10.8 µM (inactive)
GI50 [33]: 13.1 µM (inactive)
GI50 [34]: 22.5 µM (inactive)
GI50 [35]: 17.7 µM (inactive)
GI50 [36]: 34.2 µM (inactive)
GI50 [37]: > 100 µM (inactive)
GI50 [38]: > 10 µM (inactive)
GI50 [39]: 27.8 µM (inactive)
GI50 [40]: 28.2 µM (inactive)
GI50 [41]: 39.1 µM (inactive)
GI50 [42]: 22.9 µM (inactive)
GI50 [43]: 13.5 µM (inactive)
GI50 [44]: 32.7 µM (inactive)
GI50 [45]: 17.5 µM (inactive)
GI50 [46]: 22.8 µM (inactive)
GI50 [47]: 34.8 µM
GI50 [48]: 39.9 µM (inactive)
GI50 [49]: 24.8 µM (inactive)
GI50 [50]: 73.1 µM (inactive)
GI50 [51]: 42.2 µM (inactive)
GI50 [52]: 72.9 µM (inactive)
GI50 [53]: 12.7 µM (inactive)
GI50 [54]: 28.6 µM (inactive)
GI50 [55]: 24.1 µM (inactive)
